We go through three compounds from ChEMBL document CHEMBL1914389, “Steroidal C-21 mercapto derivatives as dissociated steroids: discovery of an inhaled dissociated steroid” (Bioorg Med Chem Lett, 2011).

In series [1] the target is T1, Glucocorticoid receptor (Homo sapiens) (UniProt P04150).
T1 sequence (whole entry): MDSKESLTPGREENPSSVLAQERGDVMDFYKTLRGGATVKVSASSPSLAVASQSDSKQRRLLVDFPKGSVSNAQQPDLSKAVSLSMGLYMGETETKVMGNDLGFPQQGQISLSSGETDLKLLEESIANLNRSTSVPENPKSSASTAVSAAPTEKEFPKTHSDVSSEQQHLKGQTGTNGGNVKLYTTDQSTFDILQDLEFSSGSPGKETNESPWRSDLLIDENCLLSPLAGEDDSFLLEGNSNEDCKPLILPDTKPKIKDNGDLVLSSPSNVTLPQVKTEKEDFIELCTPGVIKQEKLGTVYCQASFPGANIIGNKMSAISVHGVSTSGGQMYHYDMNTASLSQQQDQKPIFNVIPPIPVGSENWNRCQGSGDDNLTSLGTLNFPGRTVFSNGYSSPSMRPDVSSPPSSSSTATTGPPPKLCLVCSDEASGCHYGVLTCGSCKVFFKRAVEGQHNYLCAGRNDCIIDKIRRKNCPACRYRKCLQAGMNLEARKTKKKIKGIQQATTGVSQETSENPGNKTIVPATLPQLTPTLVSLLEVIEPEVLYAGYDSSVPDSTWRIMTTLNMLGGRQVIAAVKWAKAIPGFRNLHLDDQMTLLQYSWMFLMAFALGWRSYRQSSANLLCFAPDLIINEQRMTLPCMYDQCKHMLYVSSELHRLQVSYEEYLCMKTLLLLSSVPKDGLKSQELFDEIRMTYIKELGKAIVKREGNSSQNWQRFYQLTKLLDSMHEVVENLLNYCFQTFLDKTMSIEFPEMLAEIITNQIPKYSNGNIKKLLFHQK
The series can be described thus: Transactivation activity at glucocorticoid receptor in human HepG2 cells assessed as induction of tyrosine amino transferase at 1 uM relative to control. It counts as cell-based.

Series [2] concerns the target T2, Glucocorticoid receptor (Homo sapiens, UniProt P04150).
T2 sequence (P04150 whole entry): T1 sequence (whole entry)
The series can be described thus: Transrepression activity at glucocorticoid receptor in human H292 cells assessed as inhibition of TNF-stimulated IL-6 cytokine synthesis. It counts as cell-based.

In series [3] the test system is Rattus norvegicus. The series can be described thus: Toxicity in ip dosed Brown-Norway rat assessed as decrease in thymus weight administered for 3 days. It counts as organism-based. The following applies: in vivo, 72 h.
Series [4] concerns the target T2, Glucocorticoid receptor. The series can be described thus: Inhibition of human glucocorticoid receptor.
Series [5] has as its target T1, Glucocorticoid receptor (Homo sapiens). The series can be described thus: Transactivation activity at glucocorticoid receptor in human HepG2 cells expressing luciferase-taggged GRE gene at 1 uM by luciferase reporter gene assay relative to control. It counts as cell-based.
Series [6] has the same target. The series can be described thus: Transrepression activity at glucocorticoid receptor in human H292 cells assessed as inhibition of TNF-stimulated IL-6 cytokine synthesis at 1 uM relative to control. It counts as cell-based.
A further series deals with Lung. The series can be described thus: Drug uptake in lung of Brown-Norway rat. It counts as ADME, tissue-based. The following applies: in vivo.
The subject of series [7] is Rattus norvegicus. The series can be described thus: Toxicity in ip dosed Brown-Norway rat assessed as decrease in adrenal weight administered for 3 days. It counts as organism-based. The following applies: in vivo, 72 h.
The subject of series [8] is Rattus norvegicus. The series can be described thus: Toxicity in ip dosed Brown-Norway rat assessed as decrease in body weight administered for 3 days. It counts as organism-based. The following applies: in vivo, 72 h.
Series [9] addresses T3, Glucocorticoid receptor (Rattus norvegicus) (UniProt P06536).
T3 sequence (whole entry): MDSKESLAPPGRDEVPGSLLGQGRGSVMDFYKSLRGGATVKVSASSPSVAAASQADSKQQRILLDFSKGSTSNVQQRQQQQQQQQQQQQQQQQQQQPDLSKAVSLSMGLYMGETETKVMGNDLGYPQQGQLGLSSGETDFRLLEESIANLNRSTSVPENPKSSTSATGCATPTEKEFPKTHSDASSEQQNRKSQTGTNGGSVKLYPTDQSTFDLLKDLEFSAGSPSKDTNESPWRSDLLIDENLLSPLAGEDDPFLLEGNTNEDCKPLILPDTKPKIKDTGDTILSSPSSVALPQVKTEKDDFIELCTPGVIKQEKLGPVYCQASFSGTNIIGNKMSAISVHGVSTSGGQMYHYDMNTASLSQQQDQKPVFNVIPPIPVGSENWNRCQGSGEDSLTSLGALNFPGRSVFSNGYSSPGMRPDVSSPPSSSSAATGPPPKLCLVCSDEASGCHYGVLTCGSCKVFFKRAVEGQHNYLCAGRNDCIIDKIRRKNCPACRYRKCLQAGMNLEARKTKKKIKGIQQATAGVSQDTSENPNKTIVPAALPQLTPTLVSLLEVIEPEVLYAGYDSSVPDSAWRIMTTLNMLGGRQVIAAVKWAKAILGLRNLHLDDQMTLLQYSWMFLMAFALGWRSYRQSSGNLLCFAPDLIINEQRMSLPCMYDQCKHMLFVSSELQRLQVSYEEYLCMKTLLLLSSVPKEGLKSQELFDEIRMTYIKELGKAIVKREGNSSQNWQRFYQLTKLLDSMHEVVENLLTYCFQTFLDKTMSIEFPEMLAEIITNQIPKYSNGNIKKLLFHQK
The series can be described thus: Transactivation activity at glucocorticoid receptor in rat H4II-E cells assessed as induction of tyrosine amino transferase at 1 uM relative to control. It counts as cell-based.

The test system of series [10] is Rattus norvegicus. The series can be described thus: Antiinflammatory activity in intratracheal insufflated allergen challenged Brown-Norway rat assessed as inhibition of inflammatory cell influx administered as single dose. It counts as functional. Particulars: inhaled or nasal.
Series [11] relates to Rattus norvegicus. The series can be described thus: Antiinflammatory activity in allergen challenged Brown-Norway rat assessed as inhibition of total BAL cell administered via nose as dry powder. It counts as functional.
Series [12] concerns Rattus norvegicus. The series can be described thus: Antiinflammatory activity in ovalbumin-challenged Brown-Norway rat assessed as improvement in lung function administered via nose as dry powder inhalation once a day for 3 days. It counts as functional. Particulars: inhaled or nasal, 72 h.
The subject of series [13] is Rattus norvegicus. The series can be described thus: Induction of thymolysis in ovalbumin-challenged Brown-Norway rat administered via nose inhalation. It counts as organism-based. Particulars: in vivo, inhaled_or_intranasal.
The subject of series [14] is Rattus norvegicus. The series can be described thus: Induction of thymolysis in ovalbumin-challenged Brown-Norway rat at upto 730 ug/kg administered via nose inhalation. It counts as organism-based. Particulars: in vivo, 0.73 mg/kg.
For series [15], the species on record is Rattus norvegicus. The series can be described thus: Ratio of fluticasone propionate TI to compound TI in ovalbumin-challenged Brown-Norway rat.
Series [16] in a line: Therapeutic index, ratio of ED20 for thymolysis to ED70 for forced vital capacity in ovalbumin-challenged Brown-Norway rat. Particulars: in vivo, read-out: TI. It counts as organism-based.
A short description of series [17]: AUC in rat at 10 mg/kg, po. It counts as ADME, organism-based. Further details: dose 10 mg/kg, route oral. The following applies: plasma.

As to `C[C@]12CCC(=O)C=C1CC[C@@H]1[C@@H]2[C@@H](O)C[C@@]2(C)[C@H]1CC[C@]2(O)C(=O)CSc1nc2ccccc2s1`, the Emax was determined as 5% in series [1], 30% in series [5], 97% in series [6] and 0% in series [9]. Moreover, the 50% inhibitory concentration (IC50) at Glucocorticoid receptor [2] was 36 nM; at Glucocorticoid receptor [4] it was 4.8 nM. The ED50 in the series with Rattus norvegicus [3] is over 100 mg/kg; with Rattus norvegicus [7], over 100 mg/kg; in the series with Rattus norvegicus [8], over 100 mg/kg; in the series with Rattus norvegicus [10], 0.42 mg/kg. Further, in the series on Lung, the Drug uptake was 85 µg/kg. The “inhibition (INH)” value in the series on Rattus norvegicus [11] turned out to be 27%.
Consider `CCC(=O)O[C@]1(C(=O)SCF)[C@H](C)C[C@H]2[C@@H]3C[C@H](F)C4=CC(=O)C=C[C@]4(C)[C@@]3(F)[C@@H](O)C[C@@]21C` [FLUTICASONE PROPIONATE], for which the Emax worked out at 113% in series [1], 99% in series [6] and 110% in series [9]. Moreover, the ED70 in the series on Rattus norvegicus [12] was found to be 0.021 mg/kg. The median effective dose (ED50) with Rattus norvegicus [3] worked out at 0.14 mg/kg; with Rattus norvegicus [7], 0.52 mg/kg; in the series with Rattus norvegicus [8], 0.34 mg/kg; in the series on Rattus norvegicus [10] it was 0.14 mg/kg. The ED20 in the series with Rattus norvegicus [13] amounted to 0.023 mg/kg.
Consider `C[C@]12CCC(=O)C=C1CC[C@@H]1[C@@H]2[C@@H](O)C[C@@]2(C)[C@H]1CC[C@]2(OC(=O)c1ccco1)C(=O)CSc1nc2ccccc2s1`, for which the figures for the Emax in series [1], in series [6] and in series [9] were 5%, 100% and 2%, respectively. Further, on Glucocorticoid receptor [2], the IC50 was 2 nM. The Activity result in the series on Rattus norvegicus [14] is reported as “>= 20%”. Also, the Ratio in the series listed under Rattus norvegicus [15] is given as 10. Also, in [16], the selectivity ratio was over 15. Moreover, in series [17], the AUC stood at 7 ng·h/mL.
